The target of experiment [1] is T1, human platelet 12-lipoxygenase (12-LOX) (Homo sapiens, UniProt P18054).
T1 construct: His6 (N); made in house
T1 sequence (P18054 1-663): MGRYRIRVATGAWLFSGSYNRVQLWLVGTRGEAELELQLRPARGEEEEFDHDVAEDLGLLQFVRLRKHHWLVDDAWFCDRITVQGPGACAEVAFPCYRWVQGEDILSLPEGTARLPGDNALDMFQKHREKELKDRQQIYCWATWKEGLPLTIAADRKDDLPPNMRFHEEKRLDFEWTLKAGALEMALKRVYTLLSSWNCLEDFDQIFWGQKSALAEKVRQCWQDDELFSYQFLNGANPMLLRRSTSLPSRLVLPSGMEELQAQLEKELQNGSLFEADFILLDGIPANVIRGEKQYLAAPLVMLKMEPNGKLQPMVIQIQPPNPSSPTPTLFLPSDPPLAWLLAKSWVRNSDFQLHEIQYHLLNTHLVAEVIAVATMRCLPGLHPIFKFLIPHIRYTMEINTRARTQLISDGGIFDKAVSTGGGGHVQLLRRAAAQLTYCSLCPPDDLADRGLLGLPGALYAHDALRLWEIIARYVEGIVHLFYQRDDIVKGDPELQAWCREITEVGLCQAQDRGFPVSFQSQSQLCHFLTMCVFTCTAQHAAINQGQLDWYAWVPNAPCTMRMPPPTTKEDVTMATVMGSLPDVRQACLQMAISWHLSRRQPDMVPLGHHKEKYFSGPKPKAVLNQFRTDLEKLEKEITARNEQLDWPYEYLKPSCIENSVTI
Nature of the experiment: Lipoxygenase UV-based inhibitor assay, 12-LOX. In kind it is biochemical. Conditions: 10 µM AA, pH 8.0. As to the method:
(§1) Human leukocyte 5-lipoxygenase was expressed as a non-tagged protein and used as a crude ammonium sulfate protein fraction, as published previously.
(§2) Inhibitor potencies were evaluated through use of the standard UV-based inhibitor assay. The initial rates were determined by following the formation of the conjugated diene product at 234 nm (ε = 25,000 M^−1 cm^−1) with a Perkin-Elmer Lambda 40 UV/Vis spectrophotometer at one substrate concentration and varying inhibitor concentrations. All reactions were 2 mL in volume and constantly stirred using a magnetic stir bar at room temperature (23°C), with the enzyme specific buffer conditions outlined in Table 1. The substrate used for the various isozymes was arachidonic acid (AA) for 5-LOX, 12-LOX, and 15-LOX-2 and linoleic acid (LA) for 15-LOX-1, where concentrations were quantitatively determined by allowing the enzymatic reaction to go to completion. IC50 values were obtained by determining the initial rate at various inhibitor concentrations and plotting them against inhibitor concentration, followed by a hyperbolic saturation curve fit. The data used for the saturation curves were performed in duplicate or triplicate, depending on the quality of the data. […] Inhibitors were stored at −20°C in DMSO. […] The solvent isotope effect of the inhibitor IC50 was investigated utilizing the same conditions and methods as stated above. The pH of the buffered D2O was determined as reported previously.

The target in experiment [2] is T2, Human reticulocyte 15-lipoxygenase-1 (15-LOX-1) (Homo sapiens, UniProt P16050).
T2 construct: His6 (N); made in house
T2 sequence (P16050 1-662): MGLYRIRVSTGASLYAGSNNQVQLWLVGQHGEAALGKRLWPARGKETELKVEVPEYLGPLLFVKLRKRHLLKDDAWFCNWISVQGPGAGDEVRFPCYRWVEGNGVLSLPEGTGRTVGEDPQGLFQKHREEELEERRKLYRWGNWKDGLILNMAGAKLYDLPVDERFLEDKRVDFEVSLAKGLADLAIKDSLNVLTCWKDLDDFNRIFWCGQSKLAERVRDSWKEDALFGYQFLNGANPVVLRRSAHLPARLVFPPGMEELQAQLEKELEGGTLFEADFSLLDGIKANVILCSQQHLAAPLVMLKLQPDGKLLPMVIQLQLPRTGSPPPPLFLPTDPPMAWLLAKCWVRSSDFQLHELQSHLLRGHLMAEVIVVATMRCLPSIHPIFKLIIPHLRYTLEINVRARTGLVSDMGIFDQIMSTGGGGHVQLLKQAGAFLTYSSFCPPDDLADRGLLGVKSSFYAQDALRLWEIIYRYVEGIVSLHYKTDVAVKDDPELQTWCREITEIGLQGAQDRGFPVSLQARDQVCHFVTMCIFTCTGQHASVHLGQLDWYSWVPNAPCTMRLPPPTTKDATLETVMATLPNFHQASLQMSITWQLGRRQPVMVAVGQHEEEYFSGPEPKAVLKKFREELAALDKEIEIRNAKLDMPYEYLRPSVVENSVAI
Nature of the experiment: Lipoxygenase UV-based inhibitor assay, 15-LOX-1. In kind it is biochemical. Conditions: 10 µM LA, pH 7.5. How it is done: as §1, §2

Another experiment addresses T3, 5-LOX (Homo sapiens, UniProt P09917).
T3 construct: made in house
T3 sequence (P09917 1-674): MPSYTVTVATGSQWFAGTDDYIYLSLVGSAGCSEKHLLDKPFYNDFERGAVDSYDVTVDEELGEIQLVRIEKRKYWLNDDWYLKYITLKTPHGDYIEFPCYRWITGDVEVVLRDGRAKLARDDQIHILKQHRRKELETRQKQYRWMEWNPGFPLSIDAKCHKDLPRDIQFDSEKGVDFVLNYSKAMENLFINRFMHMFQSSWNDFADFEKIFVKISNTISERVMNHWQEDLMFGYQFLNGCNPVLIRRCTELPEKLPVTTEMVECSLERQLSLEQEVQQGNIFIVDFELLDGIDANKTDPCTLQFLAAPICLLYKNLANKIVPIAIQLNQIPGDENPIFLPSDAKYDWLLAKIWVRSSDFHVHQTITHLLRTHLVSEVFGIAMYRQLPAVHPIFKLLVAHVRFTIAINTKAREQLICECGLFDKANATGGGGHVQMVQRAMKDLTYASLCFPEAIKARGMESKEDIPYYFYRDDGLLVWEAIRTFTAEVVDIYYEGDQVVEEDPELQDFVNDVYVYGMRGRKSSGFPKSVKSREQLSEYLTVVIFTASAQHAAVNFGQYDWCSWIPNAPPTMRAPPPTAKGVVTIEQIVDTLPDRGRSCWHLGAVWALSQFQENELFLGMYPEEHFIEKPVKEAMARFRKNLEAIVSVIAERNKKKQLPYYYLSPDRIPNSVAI
Nature of the experiment: Pseudoperoxidase activity assay. In kind it is biochemical. Conditions: 10 µM inhibitor, 10 µM 13-HPODE, positive = loss of greater than 40% of product absorption at 234 nm. How it is done:
The reductive properties of the inhibitors were determined by monitoring the pseudoperoxidase activity of lipoxygenase in the presence of the inhibitor and 13-(S)-hydroperoxyoctadecadienoic acid (13-HPODE). Activity is monitored by direct measurement of the product degradation following the decrease of absorbance at 234 nm using a Perkin-Elmer Lambda 40 UV/Vis spectrometer (50 mM Sodium Phosphate (pH 7.4), 0.3 mM CaCl2, 0.1 mM EDTA, 0.01% Triton X100, 10 µM 13-HPODE). All reactions were performed in 2 mL of buffer and constantly stirred with a rotating stir bar (23°C). Reaction was initiated by addition of 10 µM inhibitor (a 1 to 1 ratio to 13-HPODE), and a positive result for activity reflected a loss of greater than 40% of product absorption at 234 nm.

For experiment [3], the target named is T4, Human leukocyte 5-lipoxygenase (Homo sapiens, UniProt P09917).
T4 construct: made in house
T4 sequence (P09917 1-674): T3 sequence (P09917 1-674)
Nature of the experiment: Lipoxygenase UV-based inhibitor assay, 5-LOX. Conditions: for IC50: UV-based assay, 10 µM AA, pH 7.3, crude enzyme, error = SD, read-out: 5-LOX IC50. In kind it is biochemical. How it is done: as §1, §2

The target of experiment [4] is T5, human prostate epithelial 15-lipoxygenase-2 (15-LOX-2) (Homo sapiens, UniProt O15296).
T5 construct: His6 (N); made in house
T5 sequence (O15296 1-676): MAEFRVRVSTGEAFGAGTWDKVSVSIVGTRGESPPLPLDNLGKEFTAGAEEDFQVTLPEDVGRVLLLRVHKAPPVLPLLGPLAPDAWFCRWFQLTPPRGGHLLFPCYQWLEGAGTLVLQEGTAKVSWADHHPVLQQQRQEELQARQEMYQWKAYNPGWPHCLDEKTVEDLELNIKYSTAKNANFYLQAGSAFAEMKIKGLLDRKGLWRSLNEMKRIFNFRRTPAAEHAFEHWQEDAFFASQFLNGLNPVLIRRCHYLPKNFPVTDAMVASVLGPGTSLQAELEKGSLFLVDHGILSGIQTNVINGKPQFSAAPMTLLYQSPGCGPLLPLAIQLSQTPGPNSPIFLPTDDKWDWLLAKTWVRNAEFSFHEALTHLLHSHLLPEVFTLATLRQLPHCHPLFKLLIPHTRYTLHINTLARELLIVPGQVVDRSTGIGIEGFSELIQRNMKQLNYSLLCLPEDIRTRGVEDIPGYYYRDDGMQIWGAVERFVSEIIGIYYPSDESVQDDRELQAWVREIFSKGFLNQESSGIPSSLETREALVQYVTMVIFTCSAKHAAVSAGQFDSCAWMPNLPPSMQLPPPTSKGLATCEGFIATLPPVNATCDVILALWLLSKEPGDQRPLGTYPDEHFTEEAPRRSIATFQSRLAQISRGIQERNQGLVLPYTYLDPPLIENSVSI
Nature of the experiment: Lipoxygenase UV-based inhibitor assay, 15-LOX-2. It counts as biochemical. Conditions: 30 µM AA, pH 7.5. As to the method:
as §1, §2

Experiment [5] has as its system LTB4 synthesis in whole human blood. Nature of the experiment: Human blood LTB4 inhibition assay. In kind it is cell-based. Conditions: Homo sapiens, compounds at 10 µM, calcium ionophore stimulated, ELISA; error in parentheses. How it is done: Whole human blood was obtained from healthy volunteers from within the Student Health Center. These studies were approved by the UCSC Institutional Review Board (IRB) and informed consent was obtained from all donors before blood draw. The whole blood was dispensed in 150 µL samples followed by addition of inhibitor or control (vehicle, DMSO), and incubated for 15 min at 37°C. The mixture was then stimulated by introduction of the calcium ionophore, […], (freshly diluted from a 50 mM DMSO stock to 1.5 mM in Hanks balanced salt solution), and incubated for 30 min at 37°C. Samples were then centrifuged at 1,500 rpm (300 g) for 10 min at 4°C and the supernatant diluted between 20 and 50-fold (batch dependent) for LTB4 detection, using an ELISA detection kit (Cayman Chemicals Inc.).

The term IC50 denotes the concentration at which inhibition is half-maximal. What is called inhibition is the relative decrease from the control value, in per cent.

On to `CC(c1cc2ccccc2s1)N(O)C(N)=O` (centres unmarked) [zileuton, reference compound], for which the IC50 in experiment [1] is above 150 µM; in experiment [2], above 50 µM. The “Reductive activity (pseudoperoxidase activity)” value (shortened to “Reductive activity”) at 5-LOX is given as “reductive”; on 5-LOX (listed as Zilueton) it was “Yes”.

As to `CC(=O)N1CCN(c2ccc(NCc3ccc(-c4ccc(Br)cc4)o3)cc2)CC1` [Compound 12], the IC50 in experiment [3] came out at 2.6 µM.

With `CN(Cc1ccc(-c2ccc(C#N)cc2)o1)c1ccc(N2CCN(C(=O)OC(C)(C)C)CC2)cc1` [Compound 7], in experiment [3], the IC50 came out at 2.7 µM. Moreover, the “Reductive activity” value on 5-LOX is recorded as “Yes”.

Turning to `CC(C)(C)OC(=O)N1CCN(c2ccc(NCc3nnc(-c4ccc(C#N)cc4)o3)cc2)CC1` [Compound 10], in experiment [3], the IC50 was above 150 µM. Further, in experiment [3] (relative to the other analogues of Figure 3), the “decrease in 5-LOX potency” value is recorded as “greater than 10 fold”.

In the case of `CC(C)(C)OC(=O)N1CCN(c2ncc(NCc3ccc(-c4ccc(C#N)cc4)o3)cn2)CC1` [Compound 4], in experiment [3], the “5-LOX inhibition, in words” value was “complete loss of inhibition” and the IC50 is above 150 µM. At 5-LOX, the “Reductive activity” value is listed as “No”.

As for `CC(C)(C)OC(=O)N1CCN(c2cnc(NCc3ccc(-c4ccc(C#N)cc4)o3)nc2)CC1` [Compound 5], in experiment [3], the “5-LOX inhibition, in words” value is listed as “complete loss of inhibition” and the IC50 was above 150 µM. Besides, on 5-LOX, the “Reductive activity” value was “No”.

On to `CC(C)(C)OC(=O)N1CCN(c2ccc(NCc3cnc(-c4ccc(C#N)cc4)o3)cc2)CC1` [Compound 8], for which, in experiment [3], the IC50 was determined as 0.1 µM.

As to `CC(C)(C)OC(=O)N1CCN(c2ccc(NCc3ncc(-c4ccc(C#N)cc4)o3)cc2)CC1` [Compound 9], the IC50 in experiment [3] was 1.5 µM.

With `CC(C)(C)OC(=O)N1CCC(c2ccc(NCc3ccc(-c4ccc(C#N)cc4)o3)cc2)CC1` [Compound 2], in experiment [3], the “5-LOX inhibition, in words” value is recorded as “complete loss of inhibition” and the IC50 is above 150 µM. Also, the “Reductive activity” value on 5-LOX is reported as “No”.

For the compound `CC(C)(C)OC(=O)N1CCN(c2ccc(OCc3ccc(-c4ccc(C#N)cc4)o3)cc2)CC1` [Compound 3], in experiment [3], the “5-LOX inhibition, in words” value is reported as “complete loss of inhibition” and the IC50 was above 150 µM. The “Reductive activity” value at 5-LOX is given as “No”.

`CC(=O)N1CCN(c2ccc(NCc3ccc(C)cc3)cc2)CC1` [Compound 11]: the concentration for half-maximal inhibition (IC50) in experiment [3] was found to be 1.1 µM.

`Cc1ccc(CNc2ccc(N3CCCCC3)cc2)cc1` [Compound 15]: the IC50 in experiment [1] is above 50 µM; in experiment [4], above 50 µM; in experiment [2] it was above 150 µM; in experiment [3] it was 0.6 µM. In addition, the inhibition at 10 µM in experiment [5] was below 10%.

Values taken from article PMC3691235, “Discovery of a Novel Dual Fungal CYP51/Human 5-Lipoxygenase Inhibitor: Implications for Anti-Fungal Therapy” (PLoS ONE, 2013).
